pKi: −log10 of the molar value.
What was measured:
[1] = target: T1, OBT-DM (Arabidopsis thaliana, UniProt Q9SAA9); details: for wavelength of maximum absorbance in difference spectrum / wavelength of minimum absorbance in difference spectrum: 0.25 mg/ml OBT-DM in 50 mM HEPES pH 7.2, 1 μL of 1 mM inhibitor added, spectrum 300-500 nm
T1 sequence (Q9SAA9 35-488): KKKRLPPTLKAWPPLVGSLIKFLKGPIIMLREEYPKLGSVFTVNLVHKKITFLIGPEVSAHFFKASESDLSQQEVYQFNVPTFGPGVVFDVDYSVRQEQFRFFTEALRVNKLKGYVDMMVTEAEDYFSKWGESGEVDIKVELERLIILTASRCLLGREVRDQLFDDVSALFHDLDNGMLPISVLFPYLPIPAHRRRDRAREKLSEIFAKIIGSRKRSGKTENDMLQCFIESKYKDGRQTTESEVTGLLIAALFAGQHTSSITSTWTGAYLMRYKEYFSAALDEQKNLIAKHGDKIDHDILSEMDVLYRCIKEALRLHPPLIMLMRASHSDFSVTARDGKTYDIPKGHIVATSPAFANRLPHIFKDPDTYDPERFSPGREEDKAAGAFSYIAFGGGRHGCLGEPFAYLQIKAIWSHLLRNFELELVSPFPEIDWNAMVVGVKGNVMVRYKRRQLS
Description: An OBT-DM solution (0.25 mg/ml) in 50 mM HEPES, pH 7.2, was placed in a micro-quartz cuvette with 1 cm path length. The solution was used to blank a Hewlett Packard 8453 spectrometer. Then 1 μL of a 1 mM solution of type II inhibitor in 50% (v/v) DMSO ethanol was added and the spectrum was acquired between the 300 and 500 nm region.

[2] = target: T2, OBT-DM (Arabidopsis thaliana, UniProt Q9SAA9); experiment: Equilibrium inhibitory constant for OBT-DM (no method given); format: binding
T2 sequence (Q9SAA9 1-488): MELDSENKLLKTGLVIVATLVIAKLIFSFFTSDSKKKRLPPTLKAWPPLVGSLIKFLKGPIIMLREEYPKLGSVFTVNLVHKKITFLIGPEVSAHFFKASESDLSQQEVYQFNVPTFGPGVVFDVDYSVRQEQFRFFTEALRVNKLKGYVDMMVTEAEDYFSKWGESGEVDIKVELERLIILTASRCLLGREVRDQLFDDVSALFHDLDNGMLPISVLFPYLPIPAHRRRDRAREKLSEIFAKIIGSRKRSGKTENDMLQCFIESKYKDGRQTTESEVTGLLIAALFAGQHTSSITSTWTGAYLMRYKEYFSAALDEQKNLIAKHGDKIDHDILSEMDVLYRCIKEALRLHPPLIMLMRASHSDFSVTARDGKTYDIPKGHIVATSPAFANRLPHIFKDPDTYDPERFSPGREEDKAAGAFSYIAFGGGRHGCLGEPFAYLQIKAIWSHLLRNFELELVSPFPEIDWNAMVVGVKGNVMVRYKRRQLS

[3] = target: T1, OBT-DM; experiment: 384-well assay for identification of inhibitors of OBT-DM, read at 413 nm with 432 nm as reference; format: binding; set-up: made in house; host or cells: E. coli Rosetta DE3 pLysS; details: 10 μM compound, 0.4 mg/ml OBT-DM, 20 min room temperature; negative control wells 0.09-0.12
Description: The assay was performed using 0.4 mg/ml OBTDM in 50 mM HEPES, pH 7.2, and 0.01% Tween 20 in all wells plus 10 μM Ketoconazole (positive control) in 50 mM HEPES, pH 7.2, and 0.01% Tween 20 in plate rows A-H; 10 μM compounds numbered 1-24 in 50 mM HEPES, pH 7.2, and 0.01% Tween 20 in row I; and 50 mM HEPES, pH 7.2, and 0.01% Tween 20 in rows K-P (negative control).
The assay was set up in a 384-well plate format and initiated by the addition of 40 μl of 20 μM Ketoconazole (ICN Biomedicals, Inc., Irvine, Calif.) in 50 mM HEPES, pH 7.2, 0.01% Tween 20, to rows A-H to a final concentration of 10 μM (positive control) and 40 μl of 50 mM HEPES, pH 7.2, 0.01% Tween 20, to rows K-P (negative control). Test compounds were added to a concentration of 10 μM in row I by manual addition of 40 μl of a 20 μM solution (compounds assigned numbers from 1-24). Then 40 μl of an 0.8 mg/ml solution of OBT-DM protein in 50 mM HEPES, pH 7.2, 0.01% Tween 20 (from Example 2) was added to all wells to a final concentration of 0.4 mg/ml via multidrop.

| wavelength of maximum absorbance in difference spectrum [1] [nm] | wavelength of minimum absorbance in difference spectrum [1] [nm] | magnitude of the type II difference spectrum signal ([1]; comparison among inhibitors studied) | Structure (SMILES) | pKi [2] | absorbance reading at 413 nm using 432 nm as reference wavelength [3] |
| --- | --- | --- | --- | --- | --- |
| 432 | 413 | – | Clc1ccccc1C(c1ccccc1)(c1ccccc1)n1ccnc1 [Compound 4, Clotrimazole] | – | – |
| 432 | 413 | – | OC(Cn1cncn1)(Cn1cncn1)c1ccc(F)cc1F [Compound 2, Fluconazole] | – | – |
| 432 | 413 | maximum magnitude of the signal | CC(=O)N1CCN(c2ccc(OCC3COC(Cn4ccnc4)(c4ccc(Cl)cc4Cl)O3)cc2)CC1 (stereo not drawn) [Ketoconazole] | – | – |
| – | – | – | Nc1nc[nH]n1 [Compound 10, 3-amino-1,2,4-triazole] | < 5.00 | negative result |

Source: patent US20050074829A1, “Methods for identifying inhibitors of sterol 14-alpha-demethylase” (priority 2003, published 2005)
